Data reported in patent US20250059182A1, “SOS1 INHIBITORS” (Mirati Therapeutics, Inc., priority 2021, published 2025).

Key:
pERK in MKN1 cells = test: pERK inhibition, In-Cell Western (LI-COR Odyssey), MKN1 cells; format: cell-based; conditions: Homo sapiens, MKN-1, Table B; MKN1 or H358 cells (table does not say which); 0.5-1 hour incubation; read-out: IC50 (nM), pERK inhibition
Description: This Example illustrates that exemplary compounds of the present invention prevent KRas-mediated GTP nucleotide exchange mediated by SOS1 to inhibit KRas activity thereby inhibiting the generation of the downstream effector pERK.
MKN1 cells (15,000/w) or H358 (30,000/w) were seeded in a black clear flat bottom 96-well cell culture plate (Corning, #3904) and incubated at 37° C. overnight. Assay day 1, cells were dosed with compounds of Formula (I) with a 10 μm starting concentration and serially diluted 3× for a total of 9 concentrations. The cells were incubated for approximately 0.5-1 hour with the compounds solubilized in DMSO at 37° C. Cells were immediately fixed by adding 50 μL of 4% formaldehyde to all wells in a fume hood and the plates were incubated for 20 minutes at room temperature. The formaldehyde was discarded from the plates and 150 μL of ice-cold methanol was added to permeabilize the cells for 10 minutes at −20° C. The methanol was discarded from each of the plates and any liquid remaining in the plate by tapping the plate against paper towels. Cells were then blocked with 150 μL of Odyssey blocking buffer (LI-COR Biosciences #927-50010) using 0.05% Tween for 1 hour at room temperature on a shaker. The blocking buffer was discarded and 50 μL of primary antibodies pERK (cell signaling Technology #9101L; Rabbit, 1:500) and GapDH (Millipore #MAB34; Mouse, 1:5000) diluted in Odyssey blocking buffer was added. The plates were incubated overnight at 4° C. on a shaker.
On Assay day 2, the primary antibody solution was removed. Each plate was washed 3× times with 150 μL of 1×PBST (PBS+0.1% Tween 20) and incubated with 50 μL of secondary antibodies: Anti-Rabbit (LI-COR Biosciences #926-32211) and Anti-Mouse (LI-COR Biosciences #68070) at 1:800 dilution in Odyssey blocking buffer with Tween at room temperature on a shaker for 2 hours (protected from light). The secondary antibody solution as removed and each plate was washed with PBST 3× times. Any liquid remaining was discarded and the plate was imaged using the Licor Odyssey machine according to the manufacturer's instruction, using a set focus length at 3 mm and both 800 nm and 700 nm filters. The GAPDH normalized scan values for each well were divided by the average of vehicle wells to get the % of pERK inhibition. The IC50 values were then calculated with the Graph pad Prism software.

[1] = target: T1, recombinant human SOS1 polypeptide (amino acids 560-1049) (Homo sapiens, UniProt Q07889); test: HTRF displacement assay: inhibition of labeled tracer binding to SOS1; conditions: Table A, Morrison equation for competitive binding
T1 construct: corresponding to amino acids 560-1049, expressed in E. Coli; made in house; host or cells: E. coli
T1 sequence (Q07889 560-1049): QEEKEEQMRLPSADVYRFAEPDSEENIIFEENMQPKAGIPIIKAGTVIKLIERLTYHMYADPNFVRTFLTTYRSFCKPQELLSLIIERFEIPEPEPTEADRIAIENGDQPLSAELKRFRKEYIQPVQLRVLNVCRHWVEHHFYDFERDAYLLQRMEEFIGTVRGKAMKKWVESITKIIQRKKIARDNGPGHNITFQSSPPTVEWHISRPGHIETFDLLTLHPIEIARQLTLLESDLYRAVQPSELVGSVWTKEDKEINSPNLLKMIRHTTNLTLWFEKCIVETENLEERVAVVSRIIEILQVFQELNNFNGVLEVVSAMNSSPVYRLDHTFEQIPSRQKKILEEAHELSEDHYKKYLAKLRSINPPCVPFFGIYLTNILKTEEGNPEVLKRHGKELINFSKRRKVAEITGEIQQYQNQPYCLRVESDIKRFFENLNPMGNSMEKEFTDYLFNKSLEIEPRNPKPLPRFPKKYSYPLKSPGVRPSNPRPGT

Row | Compound | IC50 (pERK in MKN1 cells) [nM] | Ki [1] [nM]
1 | Cc1c(C#N)cccc1[C@@H](C)Nc1nnc(C)c2cnc(N(C)[C@H]3CCN(C)C3)cc12 [Example 1-5, 2-methyl-3-((R)-1-((4-methyl-7-(methyl((S)-1-methylpyrrolidin-3-yl)amino)pyrido[3,4-d]pyridazin-1-yl)amino)ethyl)benzonitrile] | 57.2 | 0.683
2 | Cc1c(C#N)cccc1[C@@H](C)Nc1nnc(C)c2cnc(N(C)[C@@H]3CCN(C)C3)cc12 [Example 1-6, 2-methyl-3-((R)-1-((4-methyl-7-(methyl((R)-1-methylpyrrolidin-3-yl)amino)pyrido[3,4-d]pyridazin-1-yl)amino)ethyl)benzonitrile] | 41.6 | 1.56
3 | CCN1CC2(C1)CN(c1cc3c(N[C@H](C)c4cccc(C#N)c4C)nnc(C)c3cn1)C2 [Example 1-7, (R)-3-(1-((7-(6-ethyl-2,6-diazaspiro[3.3]heptan-2-yl)-4-methylpyrido[3,4-d]pyridazin-1-yl)amino)ethyl)-2-methylbenzonitrile] | 39.4 | 0.378
4 | Cc1c(C#N)cccc1[C@@H](C)Nc1nnc(C)c2cnc(N3CC[C@@H](N)C3)cc12 [Example 1-8, 3-((R)-1-((7-((R)-3-aminopyrrolidin-1-yl)-4-methylpyrido[3,4-d]pyridazin-1-yl)amino)ethyl)-2-methylbenzonitrile] | 274 | 1.54
5 | Cc1c(C#N)cccc1[C@@H](C)Nc1nnc(C)c2cnc(N3CC[C@H](N)C3)cc12 [Example 1-9, 3-((R)-1-((7-((S)-3-aminopyrrolidin-1-yl)-4-methylpyrido[3,4-d]pyridazin-1-yl)amino)ethyl)-2-methylbenzonitrile] | 396 | 1.66
6 | Cc1c(C#N)cccc1[C@@H](C)Nc1nnc(C)c2cnc(N3CC4(CNC4)C3)cc12 [Example 1-10, (R)-2-methyl-3-(1-((4-methyl-7-(2,6-diazaspiro[3.3]heptan-2-yl)pyrido[3,4-d]pyridazin-1-yl)amino)ethyl)benzonitrile] | 3280 | 0.541
7 | Cc1c(C#N)cccc1[C@@H](C)Nc1nnc(C)c2cnc(N3CCN(C)[C@@H](C)C3)cc12 [Example 1-11, 3-((R)-1-((7-((S)-3,4-dimethylpiperazin-1-yl)-4-methylpyrido[3,4-d]pyridazin-1-yl)amino)ethyl)-2-methylbenzonitrile] | 72.5 | 1.62
8 | Cc1c(C#N)cccc1[C@@H](C)Nc1nnc(C)c2cnc(N3CCN(C)[C@H](C)C3)cc12 [Example 1-12, 3-((R)-1-((7-((R)-3,4-dimethylpiperazin-1-yl)-4-methylpyrido[3,4-d]pyridazin-1-yl)amino)ethyl)-2-methylbenzonitrile] | 56.6 | 1.01
9 | CCN1CCN(c2cc3c(N[C@H](C)c4cccc(C#N)c4C)nnc(C)c3cn2)C[C@H]1C [Example 1-13, 3-((R)-1-((7-((R)-4-ethyl-3-methylpiperazin-1-yl)-4-methylpyrido[3,4-d]pyridazin-1-yl)amino)ethyl)-2-methylbenzonitrile] | 47.3 | 0.82
10 | CCN1CCN(c2cc3c(N[C@H](C)c4cccc(C#N)c4C)nnc(C)c3cn2)[C@@H](C)C1 [Example 1-14, 3-((R)-1-((7-((S)-4-ethyl-2-methylpiperazin-1-yl)-4-methylpyrido[3,4-d]pyridazin-1-yl)amino)ethyl)-2-methylbenzonitrile] | 53.9 | 0.788
11 | CCN1CCN(c2cc3c(N[C@H](C)c4cccc(C#N)c4C)nnc(C)c3cn2)[C@H](C)C1 [Example 1-15, 3-((R)-1-((7-((R)-4-ethyl-2-methylpiperazin-1-yl)-4-methylpyrido[3,4-d]pyridazin-1-yl)amino)ethyl)-2-methylbenzonitrile] | 63.5 | 0.789
12 | Cc1c(C#N)cccc1[C@@H](C)Nc1nnc(C)c2cnc(N3CCN(C)C[C@H]3C)cc12 [Example 1-16, 3-((R)-1-((7-((R)-2,4-dimethylpiperazin-1-yl)-4-methylpyrido[3,4-d]pyridazin-1-yl)amino)ethyl)-2-methylbenzonitrile] | 34.5 | 0.526
13 | Cc1c(C#N)cccc1[C@@H](C)Nc1nnc(C)c2cnc(N3CCN(C)C[C@@H]3C)cc12 [Example 1-17, 3-((R)-1-((7-((S)-2,4-dimethylpiperazin-1-yl)-4-methylpyrido[3,4-d]pyridazin-1-yl)amino)ethyl)-2-methylbenzonitrile] | 42.6 | 0.74
14 | CCN1CCN(c2cc3c(N[C@H](C)c4cccc(C#N)c4C)nnc(C)c3cn2)C[C@@H]1C [Example 1-18, 3-((R)-1-((7-((S)-4-ethyl-3-methylpiperazin-1-yl)-4-methylpyrido[3,4-d]pyridazin-1-yl)amino)ethyl)-2-methylbenzonitrile] | 35.9 | 0.836
15 | Cc1c(C#N)cccc1[C@@H](C)Nc1nnc(C)c2cnc(N3CCC34CN(C)C4)cc12 [Example 1-19, (R)-2-methyl-3-(1-((4-methyl-7-(6-methyl-1,6-diazaspiro[3.3]heptan-1-yl)pyrido[3,4-d]pyridazin-1-yl)amino)ethyl)benzonitrile] | 32.2 | 0.601
16 | Cc1nnc(N[C@H](C)c2cccc(C(F)(F)F)c2F)c2cc(N3CCC34CN(C)C4)ncc12 [Example 1-20, (R)-N-(1-(2-fluoro-3-(trifluoromethyl)phenyl)ethyl)-4-methyl-7-(6-methyl-1,6-diazaspiro[3.3]heptan-1-yl)pyrido[3,4-d]pyridazin-1-amine] | 40.7 | 0.682
17 | Cc1nnc(N[C@H](C)c2cccc(C(F)(F)F)c2F)c2cc(N3CCCC34CN(C)C4)ncc12 [Example 1-21, (R)-N-(1-(2-fluoro-3-(trifluoromethyl)phenyl)ethyl)-4-methyl-7-(2-methyl-2,5-diazaspiro[3.4]octan-5-yl)pyrido[3,4-d]pyridazin-1-amine] | 25.5 | 0.249
18 | Cc1c(C#N)cccc1[C@@H](C)Nc1nnc(C)c2cnc(N3CCCC34CN(C)C4)cc12 [Example 1-22, (R)-2-methyl-3-(1-((4-methyl-7-(2-methyl-2,5-diazaspiro[3.4]octan-5-yl)pyrido[3,4-d]pyridazin-1-yl)amino)ethyl)benzonitrile] | 33.2 | 0.248
19 | Cc1nnc(N[C@H](C)c2cccc(C(F)(F)F)c2F)c2cc(N3CC4(CN(C)C4)C3)ncc12 [Example 1-23, (R)-N-(1-(2-fluoro-3-(trifluoromethyl)phenyl)ethyl)-4-methyl-7-(6-methyl-2,6-diazaspiro[3.3]heptan-2-yl)pyrido[3,4-d]pyridazin-1-amine] | 59.1 | 0.21
20 | Cc1c(C#N)cccc1[C@@H](C)Nc1nnc(C)c2cnc(N3CC4(CN(C)C4)C3)cc12 [Example 1-24, (R)-2-methyl-3-(1-((4-methyl-7-(6-methyl-2,6-diazaspiro[3.3]heptan-2-yl)pyrido[3,4-d]pyridazin-1-yl)amino)ethyl)benzonitrile] | 40.3 | 0.353
21 | Cc1c(C#N)cccc1[C@@H](C)Nc1nnc(C)c2cnc(N3CCC4(CN(C)C4)C3)cc12 [Example 1-25, (R)-2-methyl-3-(1-((4-methyl-7-(2-methyl-2,6-diazaspiro[3.4]octan-6-yl)pyrido[3,4-d]pyridazin-1-yl)amino)ethyl)benzonitrile] | 68.6 | 0.492
22 | Cc1nnc(N[C@H](C)c2cccc(C(F)(F)F)c2F)c2cc(N3CCC4(CN(C)C4)C3)ncc12 [Example 1-26, (R)-N-(1-(2-fluoro-3-(trifluoromethyl)phenyl)ethyl)-4-methyl-7-(2-methyl-2,6-diazaspiro[3.4]octan-6-yl)pyrido[3,4-d]pyridazin-1-amine] | 30.8 | 0.348
